US10849875B2, “Cancer specific lipid targeted peptidomimetics” (University of Houston System, priority 2015, dated 2020)
“Also recorded” adds a separate entry of the source. Positions of bridges follow the written chain, without caps; N, C: chain ends. Non-standard residues stand in square brackets, D forms with d. Residues, ends and D or L forms follow the SMILES beside them. Chains are numbered I, II in the order given. Gly(N-piperonyl) = O=C(O)CNCc1ccc2c(c1)OCO2; N(4-MeOBn)Gly = COc1ccc(CNCC(=O)O)cc1; Nrpe = C[C@@H](NCC(=O)O)c1ccccc1; Nlys = NCCCCNCC(=O)O

Columns and labels:
Format in all cases: cell-based, human
HBEC30KT cells [1] = experiment: Cell staining with Hoechst 33342 and propidium iodide (membrane integrity); conditions: 20 μM
Description: (§1) It was evaluated how PPS1D1 affects viability of these PS expressing cancer cell lines. While there are difficulties of narrowing down the exact mechanism of action of a compound targeting cell membrane lipids, whether PPS1D1 has any effect on cell membrane integrity was evaluated. Cells were treated with standard DNA staining dyes Propidium iodide (PI) and Hoechst 33342. While both bind DNA, only Hoechst is cell permeable. Therefore, when treating live cells only Hoechst will stain the nucleus while PI will stain the nucleus only if the cell membrane integrity is compromised. All the lung cancer cell lines and normal HBEC30KT cells were treated with these dyes in the presence of PPS1D1 (at 1 μM and 20 μM) or a control compound PC462D1 at 20 μM and evaluated fluorescence by microscopy without fixation. […] These observations indicate that 20 μM PPS1D1 is selectively cytotoxic to PS-positive lung cancer cells.
(§2) 10,000 cells of HCC4017, H460, HCC95, H1693,H1395 and HBEC30KT were plated on chamber slides (Lab-Tek, Thermo Fisher, MA). On second day, cells were treated with PPS (1 μM and 20 μM), control PC462D1 (20 μM) and 0.005% Benzalkonium chloride (BAC) in RPMI medium with 10% FBS containing 3% BSA (KSFM media with 3% BSA for HBEC30KT). Chamber slides were washed with PBS three times. Cells were then stained with Hoechst 33342 (10 μg/ml) for 30 min in dark. Chamber slides were washed with 3× PBS. Cells were then stained with propidium iodide (1 mg/ml) for 15 mins. Cells were washed with 3× PBS and imaged using Fluorescence Microscope (Olympus BX-53).

[2] = test system: HCC4017, H460, HCC95, H1693, H1395 lung cancer cell lines; experiment: as above
Description: as §1, §2

HBEC30KT cells [3] = experiment: MTS cell viability assay
Description: After confirming the binding and specificity of the PPS1 on HCC4017 lung cancer cells, whether this compound has any biological effects on HCC4017 lung cancer cells was assayed. The gold standard cell viability (MTS) assay was used. HCC4017 cells and HBEC30kt and HBEC3kt cells were grown in 96 well plates on day 1, then treated by serial dilution of PPS1 and control compound C462 on day 2, and the viable cell count was measured using MTS reagent on day 3. […] On one of the repetitive experiments of this assay, Cystinylated-PPS1 compound was included (FIG. 6A). This was the intermediate compound used to attach the FITC-malemide for binding assays described previously. […] The only difference between this Cystinylated-PPS1 and the original PPS1 compound was just a single cysteine amino acid at the C-terminal. […]
A homo-dimeric version of PPS1 was synthesized. […] The resulting dimeric version of the PPS1 compound, PPS1D1 (FIG. 6C), and the analogous dimeric versions of scrambled PC2, PC2D1 (FIG. 6E), and control compound C462, PC462D1 (FIG. 82), were then evaluated for activity. […] As described above, HCC4017 cells and HBEC30kt and HBEC3kt cells were grown in 96 well plates on day 1, treated serial dilutions of PPS1, PPS1D1, C462 and C462D1 on day 2, and viable cell count was measured using MTS reagent on day 3. […]

## COc1ccc(CN(CC(=O)N(CCCCN)CC(=O)N[C@@H](CCCCN)C(=O)N[C@H](CCCCN)C(=O)N[C@@H](CCSC)C(=O)NCCCC[C@H](NC(=O)[C@H](CCSC)NC(=O)[C@@H](CCCCN)NC(=O)[C@H](CCCCN)NC(=O)CN(CCCCN)C(=O)CN(Cc2ccc(OC)cc2)C(=O)CN(C(=O)CN(Cc2ccc3c(c2)OCO3)C(=O)CN[C@H](C)c2ccccc2)[C@H](C)c2ccccc2)C(N)=O)C(=O)CN(C(=O)CN(Cc2ccc3c(c2)OCO3)C(=O)CN[C@H](C)c2ccccc2)[C@H](C)c2ccccc2)cc1 [PPS1D1] (I: H-[Nrpe][Gly(N-piperonyl)][Nrpe][N(4-MeOBn)Gly][Nlys]K[dK]MK-NH2 / II: H-[Nrpe][Gly(N-piperonyl)][Nrpe][N(4-MeOBn)Gly][Nlys]K[dK]M; amide I:9-II:C; N-terminus assumed)
HBEC30KT cells [1]
  PI staining of normal HBEC30KT cells: not observed
[2]; 1 μM
  PI / Hoechst staining of lung cancer cells: only show staining with Hoechst dye
[2]; 20 μM
  PI / Hoechst staining of lung cancer cells: staining of cells with PI
HBEC30KT cells [3]; 1 and 20 μM
  effect on normal HBEC30KT cells: no effect
HBEC30KT cells [3]; serial dilutions
  activity on normal HBEC30KT cells: did not have any activity; also recorded: no cytotoxicity
